Results: ChEMBL document CHEMBL1152179, “Semi-synthesis and biological activity of gamma-lactones analogs of camptothecin” (Bioorg Med Chem Lett, 2008)
Calls of active or inactive are those of the source. The calls are words filed in the database; no cut-off is given here.

Tests used:
Assay type in all cases: functional, cell-based
A549 [1] = experiment: Cytotoxicity against human A549 cells upto 100 uM by SRB method
HT-29 [2] = experiment: Cytotoxicity against human HT-29 cells upto 100 uM by SRB method
A549 [3] = experiment: Cytotoxicity against human A549 cells by SRB method
HT-29 [4] = experiment: Cytotoxicity against human HT-29 cells by SRB method

| SMILES | Activity (A549 [1]) | Activity (HT-29 [2]) | IC50 (A549 [3]) [µM] | IC50 (HT-29 [4]) [µM] |
| --- | --- | --- | --- | --- |
| CC[C@@]1(C(=O)NCCN2CCOCC2)OC(=O)c2c1cc1n(c2=O)Cc2c-1nc1ccccc1c2C1CCCCC1 | inactive | inactive |  |  |
| CC[C@@]1(C(=O)NCCN2CCOCC2)OC(=O)c2c1cc1n(c2=O)Cc2c-1nc1ccccc1c2C1CCCC1 | inactive | inactive |  |  |
| CC[C@@]1(C(=O)NCCN2CCCC2)OC(=O)c2c1cc1n(c2=O)Cc2cc3ccccc3nc2-1 |  |  | 94.3 | 31.6 |
| CC[C@@]1(C(=O)NCCN2CCCCC2)OC(=O)c2c1cc1n(c2=O)Cc2cc3ccccc3nc2-1 |  |  | 74.9 | 31.6 |
| CC[C@@]1(C(=O)NCCCO)OC(=O)c2c1cc1n(c2=O)Cc2cc3ccccc3nc2-1 | inactive | inactive |  |  |
| CCCCNC(=O)[C@]1(CC)OC(=O)c2c1cc1n(c2=O)Cc2cc3ccccc3nc2-1 |  |  | 70.1 | 68.3 |
| CCCCNC(=O)[C@]1(CC)OC(=O)c2c1cc1n(c2=O)Cc2c-1nc1ccccc1c2CC | inactive | inactive |  |  |
| CC[C@@]1(C(=O)NCCN2CCN(C)CC2)OC(=O)c2c1cc1n(c2=O)Cc2cc3ccccc3nc2-1 |  |  | 53.1 | 7.25 |
| CC[C@@]1(O)C(=O)OCc2c1cc1n(c2=O)Cc2cc3c(CN(C)C)c(O)ccc3nc2-1 [TOPOTECAN] |  |  | 0.48 | 0.375 |
| CC[C@@]1(C(=O)NCCN2CCOCC2)OC(=O)c2c1cc1n(c2=O)Cc2c-1nc1ccccc1c2C(=O)C1CC1 | inactive | inactive |  |  |
| CCc1c2c(nc3ccc(O)cc13)-c1cc3c(c(=O)n1C2)COC(=O)[C@]3(O)CC [7-ETHYL-10-HYDROXYCAMPTOTHECIN] |  |  | 0.08 | 0.12 |
| CCc1c2c(nc3ccc(OC)cc13)-c1cc3c(c(=O)n1C2)C(=O)O[C@@]3(CC)C(=O)NCCN1CCOCC1 | inactive | inactive |  |  |
| CC[C@@]1(C(N)=O)OC(=O)c2c1cc1n(c2=O)Cc2cc3ccccc3nc2-1 | inactive | inactive |  |  |
| CC[C@@]1(C(=O)NCCO)OC(=O)c2c1cc1n(c2=O)Cc2cc3ccccc3nc2-1 | inactive | inactive |  |  |
| CC[C@@]1(C(=O)NCCN2CCSCC2)OC(=O)c2c1cc1n(c2=O)Cc2cc3ccccc3nc2-1 | inactive | inactive |  |  |
| CC[C@@]1(C(=O)NCCN2CCOCC2)OC(=O)c2c1cc1n(c2=O)Cc2cc3ccccc3nc2-1 |  |  | 25.6 | 39.9 |
| CC[C@@]1(C(=O)NCCN2CCOCC2)OC(=O)c2c1cc1n(c2=O)Cc2c-1nc1ccc(OC)cc1c2C1CCCC1 |  |  | 96.5 | 62.9 |
| CCN(CC)CCNC(=O)[C@]1(CC)OC(=O)c2c1cc1n(c2=O)Cc2cc3ccccc3nc2-1 |  |  | 65.3 | 31.6 |
